Test results taken from ChEMBL document CHEMBL3044640, “Antifeedant, insect growth regulatory and insecticidal effects of Calceolaria talcana (Calceolariaceae) on Drosophila melanogaster and Spodoptera frugiperda” (2013).
≈ marks a conversion by molar mass, not a printed value. Calls of active or inactive are those of the source. The rule behind the calls is not given here.

Key:
Spodoptera frugiperda [1] = assay: Insecticidal activity against larvae of Spodoptera frugiperda (fall armyworm) assessed induction of apolysis at 25 ug/ml, po after 21 days; type: functional, organism-based
Spodoptera frugiperda [2] = assay: Antifeedant activity against larvae of Spodoptera frugiperda (fall armyworm) assessed reduction of adult emergence at 10 ppm after 21 days relative to control; type: functional; parameters: scale not given: the % may be the effect or the level left
Spodoptera frugiperda [3] = assay: Antifeedant activity against larvae of Spodoptera frugiperda (fall armyworm) at 100 ug/ml after 12 to 24 hr; type: functional
Spodoptera frugiperda [4] = assay: Insecticidal activity against larvae of Spodoptera frugiperda (fall armyworm) assessed growth index at 10 ppm relative to control; type: functional
Spodoptera frugiperda [5] = assay: Insecticidal activity against larvae of Spodoptera frugiperda (fall armyworm) assessed growth index at 25 ppm; type: functional
Spodoptera frugiperda [6] = assay: Antifeedant activity against larvae of Spodoptera frugiperda (fall armyworm) assessed reduction of pupation at 35 ppm after 21 days relative to control; type: functional; parameters: scale not given: the % may be the effect or the level left
Spodoptera frugiperda [7] = assay: Insecticidal activity against larvae of Spodoptera frugiperda (fall armyworm) assessed growth index at 50 ppm; type: functional
Spodoptera frugiperda [8] = assay: Antifeedant activity against larvae of Spodoptera frugiperda (fall armyworm) assessed reduction of weight gain at 50 ppm after 21 days relative to control; type: functional; parameters: scale not given: the % may be the effect or the level left
Spodoptera frugiperda [9] = assay: Antifeedant activity against larvae of Spodoptera frugiperda (fall armyworm) at 10 ug/ml after 12 to 24 hr; type: functional
Spodoptera frugiperda [10] = assay: Insecticidal activity against larvae of Spodoptera frugiperda (fall armyworm) assessed induction of prothetely appearance of precocious pupal structures in larvae at 50 ug/ml, po after 48 to 72 hr; type: functional, organism-based
Drosophila melanogaster [11] = assay: Insecticidal activity against larvae of Drosophila melanogaster assessed as mortality at 100 ug/ml after 72 hr by not choice test; type: functional
Spodoptera frugiperda [12] = assay: Antifeedant activity against larvae of Spodoptera frugiperda (fall armyworm) at 25 ug/ml after 12 to 24 hr; type: functional
Spodoptera frugiperda [13] = assay: Antifeedant activity against larvae of Spodoptera frugiperda (fall armyworm) assessed reduction of pupation at 50 ppm after 21 days relative to control; type: functional; parameters: scale not given: the % may be the effect or the level left
Spodoptera frugiperda [14] = assay: Insecticidal activity against larvae of Spodoptera frugiperda (fall armyworm) assessed mortality at 50 ppm after 21 days relative to control; type: functional; details: 504 h
Drosophila melanogaster [15] = assay: Antifeedant activity against larvae of Drosophila melanogaster at 25 ug/ml after 12 to 24 hr; type: functional
Spodoptera frugiperda [16] = assay: Antifeedant activity against larvae of Spodoptera frugiperda (fall armyworm) assessed reduction of weight gain at 35 ppm after 21 days relative to control; type: functional; parameters: scale not given: the % may be the effect or the level left
Spodoptera frugiperda [17] = assay: Insecticidal activity against larvae of Spodoptera frugiperda (fall armyworm) assessed growth index at 35 ppm relative to control; type: functional
Spodoptera frugiperda [18] = assay: Antifeedant activity against larvae of Spodoptera frugiperda (fall armyworm) assessed reduction of adult emergence at 50 ppm after 21 days relative to control; type: functional; parameters: scale not given: the % may be the effect or the level left
Spodoptera frugiperda [19] = assay: Antifeedant activity against larvae of Spodoptera frugiperda (fall armyworm) assessed reduction of adult emergence at 35 ppm after 21 days relative to control; type: functional; parameters: scale not given: the % may be the effect or the level left
Spodoptera frugiperda [20] = assay: Antifeedant activity against larvae of Spodoptera frugiperda (fall armyworm) at 5 ug/ml after 12 to 24 hr; type: functional
Drosophila melanogaster [21] = assay: Antifeedant activity against larvae of Drosophila melanogaster at 100 ug/ml after 12 to 24 hr; type: functional
Spodoptera frugiperda [22] = assay: Insecticidal activity against larvae of Spodoptera frugiperda (fall armyworm) assessed growth index at 10 ppm; type: functional
Spodoptera frugiperda [23] = assay: Insecticidal activity against larvae of Spodoptera frugiperda (fall armyworm) assessed growth index at 50 ppm relative to control; type: functional
Drosophila melanogaster [24] = assay: Insecticidal activity against larvae of Drosophila melanogaster assessed as mortality at 20 ug/ml after 72 hr by not choice test; type: functional
Spodoptera frugiperda [25] = assay: Antifeedant activity against larvae of Spodoptera frugiperda (fall armyworm) assessed reduction of adult emergence at 20 ppm after 21 days relative to control; type: functional; parameters: scale not given: the % may be the effect or the level left
Spodoptera frugiperda [26] = assay: Insecticidal activity against larvae of Spodoptera frugiperda (fall armyworm) assessed mortality at 20 ppm after 21 days relative to control; type: functional; details: 504 h
Spodoptera frugiperda [27] = assay: Antifeedant activity against larvae of Spodoptera frugiperda (fall armyworm) assessed reduction of pupation at 20 ppm after 21 days relative to control; type: functional; parameters: scale not given: the % may be the effect or the level left
Spodoptera frugiperda [28] = assay: Antifeedant activity against larvae of Spodoptera frugiperda (fall armyworm) assessed reduction of weight gain at 20 ppm after 21 days relative to control; type: functional; parameters: scale not given: the % may be the effect or the level left
Spodoptera frugiperda [29] = assay: Insecticidal activity against larvae of Spodoptera frugiperda (fall armyworm) assessed inhibition of ecdysis at 25 ug/ml, po after 21 days; type: functional, organism-based
Spodoptera frugiperda [30] = assay: Insecticidal activity against larvae of Spodoptera frugiperda (fall armyworm) assessed mortality at 10 ppm after 21 days relative to control; type: functional; details: 504 h
Drosophila melanogaster [31] = assay: Insecticidal activity against larvae of Drosophila melanogaster assessed as mortality after 72 hr by not choice test; type: functional
Spodoptera frugiperda [32] = assay: Insecticidal activity against larvae of Spodoptera frugiperda (fall armyworm) assessed growth index at 35 ppm; type: functional
Spodoptera frugiperda [33] = assay: Insecticidal activity against larvae of Spodoptera frugiperda (fall armyworm) assessed mortality at 35 ppm after 21 days relative to control; type: functional; details: 504 h
Drosophila melanogaster [34] = assay: Insecticidal activity against larvae of Drosophila melanogaster assessed as mortality at 50 ug/ml after 72 hr by not choice test; type: functional
Drosophila melanogaster [35] = assay: Antifeedant activity against larvae of Drosophila melanogaster at 50 ug/ml after 12 to 24 hr; type: functional
Spodoptera frugiperda [36] = assay: Antifeedant activity against larvae of Spodoptera frugiperda (fall armyworm) assessed reduction of pupation at 10 ppm after 21 days relative to control; type: functional; parameters: scale not given: the % may be the effect or the level left
Spodoptera frugiperda [37] = assay: Insecticidal activity against larvae of Spodoptera frugiperda (fall armyworm) assessed growth index at 25 ppm relative to control; type: functional
Spodoptera frugiperda [38] = assay: Antifeedant activity against larvae of Spodoptera frugiperda (fall armyworm) assessed reduction of weight gain at 10 ppm after 21 days relative to control; type: functional; parameters: scale not given: the % may be the effect or the level left
Spodoptera frugiperda [39] = assay: Antifeedant activity against larvae of Spodoptera frugiperda (fall armyworm) at 50 ug/ml after 12 to 24 hr; type: functional
Drosophila melanogaster [40] = assay: Antifeedant activity against larvae of Drosophila melanogaster at 10 ug/ml after 12 to 24 hr; type: functional
Spodoptera frugiperda [41] = assay: Antifeedant activity against larvae of Spodoptera frugiperda (fall armyworm) assessed reduction of pupation at 25 ppm after 21 days relative to control; type: functional; parameters: scale not given: the % may be the effect or the level left
Spodoptera frugiperda [42] = assay: Antifeedant activity against larvae of Spodoptera frugiperda (fall armyworm) assessed reduction of weight gain at 25 ppm after 21 days relative to control; type: functional; parameters: scale not given: the % may be the effect or the level left
Spodoptera frugiperda [43] = assay: Antifeedant activity against larvae of Spodoptera frugiperda (fall armyworm) assessed reduction of adult emergence at 25 ppm after 21 days relative to control; type: functional; parameters: scale not given: the % may be the effect or the level left
Spodoptera frugiperda [44] = assay: Insecticidal activity against larvae of Spodoptera frugiperda (fall armyworm) assessed mortality at 25 ppm after 21 days relative to control; type: functional; details: 504 h

| SMILES | Activity (Spodoptera frugiperda [2]) [%] | AFI (Spodoptera frugiperda [3]) [%] | Ratio (Spodoptera frugiperda [4]) | Growth_index (Spodoptera frugiperda [5]) | Growth_index (Spodoptera frugiperda [7]) | Activity (Spodoptera frugiperda [8]) [%] | AFI (Spodoptera frugiperda [9]) [%] | mortality at 100 µg/mL (Drosophila melanogaster [11]) [%] | AFI (Spodoptera frugiperda [12]) [%] | Activity (Spodoptera frugiperda [13]) [%] | mortality at 50 ppm (Spodoptera frugiperda [14]) [%] | AFI (Drosophila melanogaster [15]) [%] | Activity (Spodoptera frugiperda [18]) [%] | AFI (Spodoptera frugiperda [20]) [%] | AFI (Drosophila melanogaster [21]) [%] | Growth_index (Spodoptera frugiperda [22]) | Ratio (Spodoptera frugiperda [23]) | mortality at 20 µg/mL (Drosophila melanogaster [24]) [%] | mortality at 10 ppm (Spodoptera frugiperda [30]) [%] | LC50 (Drosophila melanogaster [31]) [µg/mL] | further results |
| --- | --- | --- | --- | --- | --- | --- | --- | --- | --- | --- | --- | --- | --- | --- | --- | --- | --- | --- | --- | --- | --- |
| C[C@@H]1O[C@@H](O[C@@H]2[C@@H](O)[C@H](OCCc3ccc(O)c(O)c3)O[C@H](CO)[C@H]2OC(=O)/C=C/c2ccc(O)c(O)c2)[C@H](O)[C@H](O)[C@H]1O [ACETOSIDE] | 0 | 100 | 0.67 | 0.41 | 0.07 | 0 | 88.2 | 100 | 96.7 | 0 | 100 | 100 | 0 | 78.9 | 100 | 0.66 | 0.1 | 92 | 81.3 | 8.08 (≈ 12.9 µM) | Activity (Spodoptera frugiperda [1]): Active; Activity (Spodoptera frugiperda [6]): 0%; Activity (Spodoptera frugiperda [10]): Active; Activity (Spodoptera frugiperda [16]): 0%; Ratio (Spodoptera frugiperda [17]): 0.15; Activity (Spodoptera frugiperda [19]): 0%; Activity (Spodoptera frugiperda [25]): 0%; mortality at 20 ppm (Spodoptera frugiperda [26]): 100%; Activity (Spodoptera frugiperda [27]): 3.1%; Activity (Spodoptera frugiperda [28]): 1.35%; inhibition (Spodoptera frugiperda [29]): Active; Growth_index (Spodoptera frugiperda [32]): 0.09; mortality at 35 ppm (Spodoptera frugiperda [33]): 100%; mortality at 50 µg/mL (Drosophila melanogaster [34]): 100%; AFI (Drosophila melanogaster [35]): 100%; Activity (Spodoptera frugiperda [36]): 3.1%; Ratio (Spodoptera frugiperda [37]): 0.45; Activity (Spodoptera frugiperda [38]): 2.15%; AFI (Spodoptera frugiperda [39]): 100%; AFI (Drosophila melanogaster [40]): 89% |
| CC(=O)O[C@@H]1C[C@H]2C(C)(C)C(=O)C=C[C@]2(C)[C@H]2CC[C@@]3(C)[C@H](c4ccoc4)OC(=O)[C@H]4O[C@]43[C@@]21C [GEDUNIN] | 15 | 100 | 0.71 | 0.51 | 0.1 | 0 | 74.5 | 100 | 85.6 | 0 | 100 | 98 | 0 | 68.8 | 100 | 0.77 | 0.11 | 87.1 | 11.6 | 11.9 (≈ 24.7 µM) | Activity (Spodoptera frugiperda [41]): 41.7%; Activity (Spodoptera frugiperda [42]): 1.35%; Activity (Spodoptera frugiperda [43]): 13%; mortality at 25 ppm (Spodoptera frugiperda [44]): 8.4%; mortality at 50 µg/mL (Drosophila melanogaster [34]): 100%; AFI (Drosophila melanogaster [35]): 100%; Activity (Spodoptera frugiperda [36]): 54.2%; Ratio (Spodoptera frugiperda [37]): 0.55; Activity (Spodoptera frugiperda [38]): 2.05%; AFI (Spodoptera frugiperda [39]): 89.9%; AFI (Drosophila melanogaster [40]): 81% |
